# ChEMBL document CHEMBL1201862, “PubChem BioAssay data set” (2004)
#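 Five concentrations, 48 hours, 96-well plates. Abbreviation: GI50, concentration required for 50% inhibition of growth.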 Activity calls are given as the source filed them. Rule as the data show it: active = GI50 up to about 1.1 µM and inactive = higher.
# Key:
# Experiment in all cases: NCI-60 cell line screen, 48 h
# MDA-MB-435 = test system: MDA-MB-435
# BT-549 = test system: BT-549
# SR = test system: SR
# SK-MEL-2 = test system: SK-MEL-2
# U-251 = test system: U-251
# NCI/ADR-RES = test system: NCI/ADR-RES
# UACC-62 = test system: UACC-62
# SK-MEL-5 = test system: SK-MEL-5
# TK-10 = test system: TK-10
# SF-268 = test system: SF-268
# HL-60 = test system: HL-60
# NCI-H460 = test system: NCI-H460
# SF-539 = test system: SF-539
# HOP-92 = test system: HOP-92
# CAKI-1 = test system: CAKI-1
# A549 = test system: A549
# UACC-257 = test system: UACC-257
# MDA-MB-231 = test system: MDA-MB-231
# Malme-3M = test system: Malme-3M
# OVCAR-8 = test system: OVCAR-8
# RPMI-8226 = test system: RPMI-8226
# NCI-H226 = test system: NCI-H226
# IGROV-1 = test system: IGROV-1
# A498 = test system: A498
# KM12 = test system: KM12
# UO-31 = test system: UO-31
# NCI-H23 = test system: NCI-H23
# COLO 205 = test system: COLO 205
# SN12C = test system: SN12C
# PC-3 = test system: PC-3
# CCRF-CEM = test system: CCRF-CEM
# HCT-15 = test system: HCT-15
# HT-29 = test system: HT-29
# OVCAR-5 = test system: OVCAR-5
# Hs-578T = test system: Hs-578T
# SNB-19 = test system: SNB-19
# RXF 393 = test system: RXF 393
# ACHN = test system: ACHN
# DU-145 = test system: DU-145
# MCF7 = test system: MCF7
# NCI-H522 = test system: NCI-H522
# HOP-62 = test system: HOP-62
# OVCAR-3 = test system: OVCAR-3
# SK-MEL-28 = test system: SK-MEL-28
# SK-OV-3 = test system: SK-OV-3
# EKVX = test system: EKVX
# HCT-116 = test system: HCT-116
# SW-620 = test system: SW-620
# 786-0 = test system: 786-0
# HCC 2998 = test system: HCC 2998
# M14 = test system: M14
# LOX IMVI = test system: LOX IMVI
# K562 = test system: K562
# T47D = test system: T47D
# MDA-N = test system: MDA-N
# SNB-75 = test system: SNB-75
# SF-295 = test system: SF-295
# MOLT-4 = test system: MOLT-4
smiles,measurement,setting,value
Cc1cc2c(C(C)C)c(O)c(O)c(/C=N/c3cc(C(F)(F)F)ccc3Cl)c2c(O)c1-c1c(C)cc2c(C(C)C)c(O)c(O)c(/C=N/c3cc(C(F)(F)F)ccc3Cl)c2c1O,GI50,MDA-MB-435,32.6 µM (inactive)
same,GI50,BT-549,28.3 µM (inactive)
same,GI50,SR,25.4 µM (inactive)
same,GI50,SK-MEL-2,35.3 µM (inactive)
same,GI50,U-251,19.3 µM (inactive)
same,GI50,NCI/ADR-RES,63.5 µM (inactive)
same,GI50,UACC-62,24.6 µM (inactive)
same,GI50,SK-MEL-5,23.6 µM (inactive)
same,GI50,TK-10,60.7 µM (inactive)
same,GI50,SF-268,37.2 µM (inactive)
same,GI50,HL-60,26.9 µM (inactive)
same,GI50,NCI-H460,31.3 µM (inactive)
same,GI50,SF-539,58.6 µM (inactive)
same,GI50,HOP-92,16.6 µM (inactive)
same,GI50,CAKI-1,48.3 µM (inactive)
same,GI50,A549,38.5 µM (inactive)
same,GI50,UACC-257,37.4 µM (inactive)
same,GI50,MDA-MB-231,25.6 µM (inactive)
same,GI50,Malme-3M,32.8 µM (inactive)
same,GI50,OVCAR-8,44.5 µM (inactive)
same,GI50,RPMI-8226,50.7 µM (inactive)
same,GI50,NCI-H226,29 µM (inactive)
same,GI50,IGROV-1,25.1 µM (inactive)
same,GI50,A498,64.3 µM (inactive)
same,GI50,KM12,30.1 µM (inactive)
same,GI50,UO-31,30.2 µM (inactive)
same,GI50,NCI-H23,57.8 µM (inactive)
same,GI50,COLO 205,31.2 µM (inactive)
same,GI50,SN12C,49.1 µM (inactive)
same,GI50,PC-3,35 µM (inactive)
same,GI50,CCRF-CEM,> 100 µM (inactive)
same,GI50,HCT-15,34.8 µM
same,GI50,HT-29,32.5 µM (inactive)
same,GI50,OVCAR-5,77.3 µM (inactive)
same,GI50,Hs-578T,> 100 µM (inactive)
same,GI50,SNB-19,28.1 µM (inactive)
same,GI50,RXF 393,28.8 µM (inactive)
same,GI50,ACHN,24.9 µM (inactive)
same,GI50,DU-145,> 100 µM (inactive)
same,GI50,MCF7,27.7 µM (inactive)
same,GI50,NCI-H522,21.5 µM (inactive)
same,GI50,HOP-62,70.5 µM (inactive)
same,GI50,OVCAR-3,37.3 µM (inactive)
same,GI50,SK-MEL-28,38.1 µM (inactive)
same,GI50,SK-OV-3,12.5 µM (inactive)
same,GI50,EKVX,98.6 µM (inactive)
same,GI50,HCT-116,74.8 µM (inactive)
same,GI50,SW-620,58.2 µM (inactive)
same,GI50,786-0,50.6 µM (inactive)
same,GI50,HCC 2998,62.7 µM (inactive)
same,GI50,M14,75.3 µM (inactive)
same,GI50,LOX IMVI,22.6 µM (inactive)
same,GI50,K562,39.4 µM (inactive)
same,GI50,T47D,29.6 µM (inactive)
Nc1ccc(-c2nc3ccc(F)cc3s2)cc1I,GI50,MDA-MB-435,> 100 µM (inactive)
same,GI50,BT-549,> 100 µM (inactive)
same,GI50,SR,> 76.2 µM (inactive)
same,GI50,SK-MEL-2,> 100 µM (inactive)
same,GI50,MDA-N,> 100 µM (inactive)
same,GI50,U-251,> 90.8 µM (inactive)
same,GI50,NCI/ADR-RES,> 31 µM (inactive)
same,GI50,SNB-75,30.8 µM (inactive)
same,GI50,UACC-62,> 79.6 µM (inactive)
same,GI50,SK-MEL-5,> 74.6 µM (inactive)
same,GI50,TK-10,< 0.01 µM (active)
same,GI50,SF-268,> 63.8 µM (inactive)
same,GI50,NCI-H460,> 100 µM (inactive)
same,GI50,SF-539,5.9 µM (inactive)
same,GI50,HOP-92,24.8 µM (inactive)
same,GI50,CAKI-1,> 100 µM (inactive)
same,GI50,A549,> 100 µM (inactive)
same,GI50,UACC-257,> 100 µM (inactive)
same,GI50,MDA-MB-231,> 54.2 µM (inactive)
same,GI50,Malme-3M,> 100 µM (inactive)
same,GI50,OVCAR-8,> 79.4 µM (inactive)
same,GI50,RPMI-8226,> 100 µM (inactive)
same,GI50,IGROV-1,< 0.01 µM (active)
same,GI50,A498,> 100 µM (inactive)
same,GI50,KM12,> 100 µM (inactive)
same,GI50,UO-31,> 100 µM (inactive)
same,GI50,SF-295,> 71 µM (inactive)
same,GI50,NCI-H23,> 100 µM (inactive)
same,GI50,COLO 205,> 100 µM (inactive)
same,GI50,MOLT-4,12.4 µM (inactive)
same,GI50,SN12C,> 100 µM (inactive)
same,GI50,PC-3,> 100 µM (inactive)
same,GI50,CCRF-CEM,> 21.2 µM (inactive)
same,GI50,HCT-15,> 100 µM
same,GI50,HT-29,56.1 µM (inactive)
same,GI50,OVCAR-5,0.0515 µM (active)
same,GI50,Hs-578T,22.2 µM (inactive)
same,GI50,SNB-19,> 61.2 µM (inactive)
same,GI50,RXF 393,> 26.1 µM (inactive)
same,GI50,ACHN,> 100 µM (inactive)
same,GI50,DU-145,> 100 µM (inactive)
same,GI50,MCF7,< 0.01 µM (active)
same,GI50,NCI-H522,> 63.1 µM (inactive)
same,GI50,HOP-62,47.1 µM (inactive)
same,GI50,SK-MEL-28,> 100 µM (inactive)
same,GI50,SK-OV-3,97.3 µM (inactive)
same,GI50,EKVX,> 51.6 µM (inactive)
same,GI50,HCT-116,< 0.01 µM (active)
same,GI50,SW-620,> 100 µM (inactive)
same,GI50,786-0,40.4 µM (inactive)
same,GI50,HCC 2998,0.121 µM (active)
same,GI50,M14,> 100 µM (inactive)
same,GI50,LOX IMVI,> 100 µM (inactive)
same,GI50,K562,> 100 µM (inactive)
